Experimental findings from ChEMBL document CHEMBL3739293, “Synthesis of unusual isoxazoline containingand-dipeptides as potential glutamate receptor ligands” (Medchemcomm, 2015) are described below.

Experiment [1] is described as follows: Displacement of [3H]KA from KA receptor in Sprague-Dawley rat brain synaptic membrane.
Experiment [2] concerns the target Glutamate NMDA receptor. The experiment in a line: Displacement of [3H]CGP39653 from NMDA receptor in Sprague-Dawley rat brain synaptic membrane. On the technique in general: Displacement assays read how much labelled ligand stays bound in the presence of the test substance.
Experiment [3] in a line: Displacement of [3H]AMPA from AMPA receptor in Sprague-Dawley rat brain synaptic membrane.

On to `N[C@@H](CCC(=O)N1C[C@@H]2ON=C(O)[C@@H]2C1)C(=O)O`, for which, in experiment [1], the IC50 (in general, the midpoint of a concentration-inhibition curve) was determined as 37 µM and the pIC50 (in general, the negative decadic logarithm of the IC50, by convention in mol/L) stood at 4.43. Moreover, in experiment [2], the affinity corresponds to a Ki of 25 µM and the pKi (in general, the negative decadic logarithm of the Ki, by convention in mol/L) was 4.63. Besides, in experiment [3], the half-inhibitory concentration (IC50) worked out at 43 µM and the pIC50 came out at 4.37.

For `N[C@H](CCC(=O)N1C[C@@H]2C(C(=O)O)=NO[C@@H]2C1)C(=O)O`, the IC50 in experiment [1] is more than 100 µM. Further, in experiment [2], the inhibition constant (Ki) (in general, the equilibrium dissociation constant of an inhibitor or competing ligand from its target) was 58 µM and the pKi is reported as 4.24. Also, the IC50 in experiment [3] was more than 100 µM.

In the case of `N[C@@H](CCC(=O)N1C[C@@H]2ON=C(C(=O)O)[C@@H]2C1)C(=O)O`, in experiment [1], the IC50 was found to be 66 µM and the negative-log IC50 (pIC50) was 4.2. In experiment [2], this compound gave a Ki of 24 µM and a pKi of 4.64. In experiment [3], the half-maximal inhibitory concentration (IC50) was determined as 46 µM and the negative logarithm of the IC50 (pIC50) is listed as 4.34.

With `N[C@H](CCC(=O)N1C[C@@H]2C(O)=NO[C@@H]2C1)C(=O)O`, the IC50 in experiment [1] and in experiment [3] was more than 100 µM in each case. This compound gave a Ki in experiment [2] of more than 100 µM.

For the compound `N[C@H](CCC(=O)N1C[C@@H]2ON=C(C(=O)O)[C@@H]2C1)C(=O)O` (single isomer, unassigned), in experiment [1], the IC50 amounted to 56 µM and the pIC50 is on record as 4.25. Besides, in experiment [2], affinity was put at a Ki of 28 µM and the pKi came out at 4.56. Further, in experiment [3], the concentration for half-maximal inhibition (IC50) is 67 µM and the pIC50 was determined as 4.18.

For `N[C@@H](CCC(=O)N1C[C@@H]2C(C(=O)O)=NO[C@@H]2C1)C(=O)O` (single isomer, unassigned), in experiment [1], the IC50 worked out at 40 µM and the pIC50 stood at 4.39. In experiment [2], this compound had a Ki of 21 µM and a negative-log Ki (pKi) of 4.68. In experiment [3], this compound displayed an IC50 of 34 µM and a pIC50 of 4.48.

`N[C@H](CCC(=O)N1C[C@@H]2ON=C(O)[C@@H]2C1)C(=O)O` (single isomer, unassigned): the IC50 in experiment [1] and in experiment [3] was more than 100 µM throughout. The compound also yielded a Ki in experiment [2] of more than 100 µM.

Take `N[C@@H](CCC(=O)N1C[C@@H]2C(O)=NO[C@@H]2C1)C(=O)O` (single isomer, unassigned): in experiment [1], the half-maximal inhibitory concentration (IC50) was 59 µM and the pIC50 is given as 4.23. In experiment [2], this compound gave a Ki of 41 µM and a pKi of 4.41. Further, in experiment [3], the IC50 is 48 µM and the negative-log IC50 (pIC50) was 4.36.
